Measured values as given in US20220313789A1, “TARGETING MELANOCORTIN 3 RECEPTOR FOR TREATMENT/PREVENTION OF EATING, METABOLISM, AND/OR EMOTIONAL DISORDERS” (The Regents of the University of Michigan, priority 2019, published 2022).

Tests used:
AgRP neurons = assay: Feeding after MC3R agonist with chemogenetic (hM4Di) inhibition of AgRP neurons; assay type: in vivo, mice; conditions: C18; CNO 0.1 mg/kg, i.p., inhibitory DREADD in AgRP neurons
Procedure: FIG. 7. […] Either saline or CNO (1 mg/kg, i.p.) was administered fifteen minutes prior to i.c.v. injections. […] Data represented as mean+/−s.e.m.
A and B: Schematic of experimental strategy to express inhibitory DREADD virus in hypothalamic AgRP neurons (A) and representative image of DREADD transduced AgRP neurons (B). Scale bar, 200 um. C: Food intake following administration of C18 in the presence of saline or CNO (0.1 mg/kg, i.p.). […] D: RNAscope analysis of MC3R expression in WT and AgRP-MC3R KI mice. […] Scale bar, 500 um.
To inhibit AgRP neurons, the arcuate nucleus of AgRP-Cre mice was targeted with stereotaxic viral injections of Cre-dependent AAV viral vectors expressing the chemogenetic inhibitor hM4Di (FIG. 7).

MC3R KO mice = assay: Feeding after i.c.v. administration in MC3R KO mice; assay type: in vivo; conditions: i.c.v. 5 ug vs vehicle
Procedure: FIG. 13. […] Data shown as mean+/−s.e.m. Panels A and B analyzed with Student's paired t-test. n=9 mice for panels A and B.
B: 24-hour food intake following administration of vehicle (aCSF) or C18 to WT mice. […] C: Change in BW following injection of vehicle or C18 (5 ug). D and E: Cumulative food intake (D) and 24-hour food intake (E) following C18 or vehicle administration in MC3R KO mice. […] F: Cumulative food intake following administration of the MC3R antagonist C11 or vehicle. […] G: 24-hour food intake in WT mice following administration of C11. H: Change in BW following injection of vehicle or C11 (5 ug). I and J: Food intake following i.c.v. injection of vehicle (DMSO, 500 nl) or C11 (5 ug, 500 nl) in MC3R KO mice. […] Data represents mean+/−s.e.m. […] Panels B, C, G, H, and J analyzed with unpaired Student's t-test. n=7 mice and n=8 mice for vehicle and C18 groups in panels A-C. n=19 mice for panels F and G. n=6 mice for vehicle and n=8 mice for C11 group in panel H. n=12 mice for vehicle and C18 group in panels D and E. n=8 mice for vehicle and C11 groups in panels I and J.
For central administration of MC3R agonist compounds we first administered vehicle injections (500 nl DMSO) for 2-4 consecutive days to habituate mice to handling and injection. […] Body weight was measured daily immediately prior to injections.

MC3R = target: T1, MC3R (Mus musculus, UniProt P33033); assay: Elevated plus maze; assay type: in vivo, mice; conditions: single peripheral injection
T1 construct: from tissue; host or cells: living mice (C57/BL6J background), central nervous system / hypothalamus
T1 sequence (P33033 whole entry): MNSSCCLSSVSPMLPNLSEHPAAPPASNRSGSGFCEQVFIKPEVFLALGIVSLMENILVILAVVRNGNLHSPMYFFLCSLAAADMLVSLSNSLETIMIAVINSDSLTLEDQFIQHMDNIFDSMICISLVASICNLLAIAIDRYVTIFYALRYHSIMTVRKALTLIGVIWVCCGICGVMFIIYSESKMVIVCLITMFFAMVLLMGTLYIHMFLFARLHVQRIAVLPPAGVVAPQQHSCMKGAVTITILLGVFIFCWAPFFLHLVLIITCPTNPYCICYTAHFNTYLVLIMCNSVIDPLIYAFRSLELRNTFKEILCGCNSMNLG
Procedure: Anxiety behavioral assays were performed in the following order with 2-4 days separated between each anxiety assay: elevated plus maze, open field test, novelty suppressed feeding test. Behavioral assays were performed during the light cycle between 10 am-5 pm. Open field and elevated plus maze testing was performed in ad libitum fed mice with one exception.
To perform elevated plus maze tests mice were initially placed into the closed arm of the elevated plus maze arena. The arena consisted of 2 50 cm long arms. One arm was enclosed by walls while the other arm was open. Activity in the maze was recorded for five minutes using animal tracking software (ANYmaze, Stoelting). Latency to enter the open arms, total distance traveled, entries to open arms, time in open arms, and distance traveled in the open arms was automatically calculated using tracking software. Treatment schedules for the elevated plus maze were identical to those described for the open field test.

Substance | Food intake in the presence of saline or CNO (AgRP neurons) | Food intake, cumulative/acute and 24-hour (MC3R KO mice) | anxiety in the elevated plus maze assay (MC3R)
Ac-Arg-Arg-(pI)DPhe-Tic-NH2 [compound 18] | increased food intake following administration of saline but not following CNO mediated inhibition of AgRP neurons | No difference in food intake was detected following C18 administration | 
H-Tyr-Val-Met-Gly-His-Phe-Arg-DTrp-Asp-Arg-Phe-Gly-OH [D-Trp8-γ-MSH] |  |  | trend towards reduction of anxiety
